Laboratory results: patent publication US20240075004A1, “VERY-LONG-CHAIN POLYUNSATURATED FATTY ACIDS, ELOVANOID HYDROXYLATED DERIVATIVES, AND METHODS OF USE” (The Board of Supervisors of Louisiana State University and …, priority 2020, published 2024)

Legend:
TP53 and IL8 = assay: Human adipocytes treated with IL1β: TP53 and IL8 expression by Taqman Real time PCR; format: cell-based
From the text: A) experimental design. B) expression levels of TP53 and IL8 in human diabetic and non-diabetic adipocytes by the means of Tagman Real time PCR.

IL6 = IL6 (marker of SASP) induced by IL1β in diabetic hypothalamus; format: cell-based; details: diabetic db/db mice hypothalamus, different effects in female and male mice
Adiponectin = Adiponectin levels in diabetic hypothalamus and adipose tissue
[1] = test system: autophagy, UPR, MMP, senescence and inflammation genes in HNEpC; assay: HNEpC challenged with HDM: gene expression; format: cell-based, human; details: 500 nM; HDM 30 μg/ml
Experimental: HDM triggered multiple signaling in human nasal epithelial cells. HNEpC challenged with HDM (D. farinae+D. pteronyssinus) (30 μg/ml) induces the expression of several genes related with autophagy (ATG3, ATG5, ATG7, BECLIN-1, and P62), unfolded protein response (UPR) (ATF6, CHOP, and IRE1) and matrix metalloproteinases (MMPs) (MMP8, MMP2, MMP9, MMP3, MMP12, TIMP1, and TIMP2). HDM stressors also induce the expression of senescence (P21, P16, P27, and P53) and inflammation genes (IL-1a, IL-6, and IL-10) on HNEpC. […] (*p<0.0001).

[2] = test system: IL-6, IL-1β, IL-8/CXCL8, CCL2/MCP-1, CXCL1/KC/GRO, VEGF, ICAM1(CD54), IL-10; assay: Sandwich ELISA of cytokines and chemokines in HNEpC challenged with stressors; format: cell-based, human; details: allergens
From the text: • Lipopolysaccharide (LPS) from Escherichia coli serotype 0111:B4 (Catalog #L4391) were obtained from Sigma-Aldrich. LPS is the principal component of Gram-negative bacteria that activates the innate immune system through its recognition by Toll-like receptor 4 (TLR4). This leads to a signaling cascade that ultimately results in the activation of NF-κB and the production of proinflammatory cytokines. LPS we used for our experiments is a preparation of smooth (S)-form LPS purified from the Gram-negative E. coli 0111:B4 that was used at 30 μg/mL to challenge HNEpC. • Polyinosinic-polycytidylic acid (abbreviated as poly(I:C) or poly(rI):poly(rC)) is a synthetic analog of double-stranded viral RNA (dsRNA), a molecular pattern associated with viral infection such as loss of epithelial integrity, increased production of mucus and inflammatory cytokines. Poly(I:C), a TLR3 agonist activates the antiviral pattern recognition receptors TLR3, RIG-I/MDA5 and PKR, thereby inducing signaling via multiple inflammatory pathways, including NF-κB and IRF. High Molecular Weight Poly(I:C) comprises long strands of inosine poly(I) homopolymer annealed to strands of cytidine poly(C) homopolymer. The average size of Poly(I:C) HMW is from 1.5 kb to 8 kb. […]

CC/C=C\C[C@H](O)\C=C/C=C/C=C/[C@H](O)C/C=C\C/C=C\CCCCCCCCCCCCCCC(=O)O [ELV-N-34]
IL8 brought down (elevated by IL1β) (TP53 and IL8; 500 nM, both diabetic and non-diabetic adipocytes): around 40 folds
levels of TP53 mRNA (TP53 and IL8; human adipocytes from diabetic patient treated with IL1β): down to non-diabetic control levels
effect of IL1β (expression levels of TP53 and IL8) (TP53 and IL8; human diabetic adipocytes): revert the effect
levels of IL6 (marker of SASP) (IL6): reduced
adiponectin in subcutaneous adipose tissue (SAT) and visceral adipose tissue (VAT) (Adiponectin): Differential effect
levels of Adiponectin (Adiponectin; ELV34 treatment): increased
adiponectin in diabetic hypothalamus (Adiponectin; female and males): trend of increase
expression of MMP genes (MMP8, MMP2, MMP9, MMP3, MMP12, TIMP1, TIMP2) [1]: inhibits these effects
expression of inflammation / senescence-associated cytokine genes [1]: inhibits these effects
expression of senescence genes (P21, P16, P27; except P53) [1]: inhibits these effects
allergen-triggered production of inflammatory cytokines, chemokines, ICAM1 and induction of autophagy and SASP [2]: attenuated
